# Measurements from patent US9833497B2, “Human originated EGF domain proteins and use of the same” (CHENGDU SOURCEBIO LIMITED-LIABILITY COMPANY, priority 2013, dated 2017).
# How the values were obtained:
# Type in all cases: cell-based
# E. coli DH5α = assay: Antibacterial activity: MIC and growth curve against E. coli DH5α in 96-well plate; conditions: minimal inhibitory concentration against E. coli DH5α; 96-well plate, 5×10^5 CFU/mL, 37° C., judged after 8 h
# Summary of the method: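 MIC taken as lowest protein level with no bacterial growth, tracked by A600 every 30 min during 37 °C, 175 rpm culture. Two-fold protein series 50-12.5 μg/mL final, triplicate wells, against 5×10^5 CFU/mL of LB-washed mid-log cells.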
# E. coli BL21 = assay: MIC against Gram-negative bacteria: E. coli BL21; conditions: 5×10^5 CFU/mL
# Summary of the method: (§1)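 Growth inhibition by human EGF domain proteins was scored in LB liquid culture seeded at 5×10^5 CFU/mL. Protein was applied as a two-fold dilution series in triplicate, with shaking incubation at 37° C; MIC is the lowest concentration giving no growth.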
# Pseudomonas aeruginosa = assay: MIC against Gram-negative bacteria: Pseudomonas aeruginosa; conditions: 5×10^5 CFU/mL
# Summary of the method: as §1
# Klebsiella pneumonia = assay: MIC against Gram-negative bacteria: Klebsiella pneumonia; conditions: 5×10^5 CFU/mL
# Summary of the method: as §1
# Enterobacter cloacae = assay: MIC against Gram-negative bacteria: Enterobacter cloacae; conditions: 5×10^5 CFU/mL
# Summary of the method: as §1
# Aeromonas hydrophila = assay: MIC against Gram-negative bacteria: Aeromonas hydrophila; conditions: 5×10^5 CFU/mL
# Summary of the method: as §1
# Citrobacter diversus = assay: MIC against Gram-negative bacteria: Citrobacter diversus; conditions: 5×10^5 CFU/mL
# Summary of the method: as §1
# Moraxella catarrhalis = assay: MIC against Gram-negative bacteria: Moraxella catarrhalis; conditions: 5×10^5 CFU/mL
# Summary of the method: as §1
# Proteus mirabilis = assay: MIC against Gram-negative bacteria: Proteus mirabilis; conditions: 5×10^5 CFU/mL
# Summary of the method: as §1
# Proteus vulgaris = assay: MIC against Gram-negative bacteria: Proteus vulgaris; conditions: 5×10^5 CFU/mL
# Summary of the method: as §1
# Serratia marcescens = assay: MIC against Gram-negative bacteria: Serratia marcescens; conditions: 5×10^5 CFU/mL
# Summary of the method: as §1
# [1] = 10 h cultivation at 37° C., two-fold serial dilution
# [2] = E. coli BL21, 96-well plate, 37° C., 10 h
# [3] = Pseudomonas aeruginosa, 96-well plate, 37° C., 10 h
# [4] = Klebsiella pneumonia, 96-well plate, 37° C., 10 h
# [5] = Enterobacter cloacae, 96-well plate, 37° C., 10 h
# [6] = Aeromonas hydrophila, 96-well plate, 37° C., 10 h
# [7] = Citrobacter diversus, 96-well plate, 37° C., 10 h
# [8] = Moraxella catarrhalis, 96-well plate, 37° C., 10 h
# [9] = Proteus mirabilis, 96-well plate, 37° C., 10 h
# [10] = Proteus vulgaris, 96-well plate, 37° C., 10 h
# [11] = Serratia marcescens, 96-well plate, 37° C., 10 h
# [12] = E. coli BL21, 10 h cultivation at 37° C.
substance,measurement,setting,value
PRT1151 (QFASCENNPCGNGATCVPKSGTDIVCLCPYGRSGPLCT; listed as Homo sapiens),MIC,E. coli DH5α,25 µg/mL
same,MIC E. coli BL21,E. coli BL21; [1],12.5 µg/mL
same,MIC P. aeruginosa,Pseudomonas aeruginosa; [1],25 µg/mL
same,MIC K. pneumonia,Klebsiella pneumonia; [1],50 µg/mL
same,MIC E. cloacae,Enterobacter cloacae; [1],25 µg/mL
same,MIC A. hydrophila,Aeromonas hydrophila; [1],25 µg/mL
same,MIC C. diversus,Citrobacter diversus; [1],12.5 µg/mL
same,MIC M. catarrhalis,Moraxella catarrhalis; [1],25 µg/mL
same,MIC P. mirabilis,Proteus mirabilis; [1],50 µg/mL
same,MIC P. vulgaris,Proteus vulgaris; [1],12.5 µg/mL
same,MIC S. marcescens,Serratia marcescens; [1],12.5 µg/mL
PRT1144 (NANDCLSNPCLHGRCTELINEYPCSCDADGTSTQCK; listed as Homo sapiens),MIC,E. coli DH5α,50 µg/mL
same,MIC E. coli BL21,E. coli BL21; [1],12.5 µg/mL
same,MIC P. aeruginosa,Pseudomonas aeruginosa; [1],50 µg/mL
same,MIC K. pneumonia,Klebsiella pneumonia; [1],12.5 µg/mL
same,MIC E. cloacae,Enterobacter cloacae; [1],50 µg/mL
same,MIC A. hydrophila,Aeromonas hydrophila; [1],12.5 µg/mL
same,MIC C. diversus,Citrobacter diversus; [1],25 µg/mL
same,MIC M. catarrhalis,Moraxella catarrhalis; [1],50 µg/mL
same,MIC P. mirabilis,Proteus mirabilis; [1],25 µg/mL
same,MIC P. vulgaris,Proteus vulgaris; [1],12.5 µg/mL
same,MIC S. marcescens,Serratia marcescens; [1],25 µg/mL
PRT591 (CACDPHNSLSPQCNQFTGQCPCREGFGGLMCSAAAIRQCPDRTYGDVATGCRA; listed as Homo sapiens),MIC,E. coli DH5α,25 µg/mL
same,MIC against E. coli BL21,"E. coli BL21; 96-well plate, 37° C., 10 h",50 µg/mL
same,MIC against P. aeruginosa,"Pseudomonas aeruginosa; 96-well plate, 37° C., 10 h",25 µg/mL
same,MIC against K. pneumonia,"Klebsiella pneumonia; 96-well plate, 37° C., 10 h",12.5 µg/mL
same,MIC against E. cloacae,"Enterobacter cloacae; 96-well plate, 37° C., 10 h",25 µg/mL
same,MIC against A. hydrophila,"Aeromonas hydrophila; 96-well plate, 37° C., 10 h",50 µg/mL
same,MIC against C. diversus,"Citrobacter diversus; 96-well plate, 37° C., 10 h",12.5 µg/mL
same,MIC against M. catarrhalis,"Moraxella catarrhalis; 96-well plate, 37° C., 10 h",50 µg/mL
same,MIC against P. mirabilis,"Proteus mirabilis; 96-well plate, 37° C., 10 h",12.5 µg/mL
same,MIC against P. vulgaris,"Proteus vulgaris; 96-well plate, 37° C., 10 h",50 µg/mL
same,MIC against S. marcescens,"Serratia marcescens; 96-well plate, 37° C., 10 h",12.5 µg/mL
PRT557 (CGCSPAGTLPEGCDEAGRCLCQPEFAGPHCDRCRPGYHGFPNCQA; listed as Homo sapiens),MIC,E. coli DH5α,12.5 µg/mL
same,MIC against E. coli BL21,"E. coli BL21; 96-well plate, 37° C., 10 h",25 µg/mL
same,MIC against P. aeruginosa,"Pseudomonas aeruginosa; 96-well plate, 37° C., 10 h",12.5 µg/mL
same,MIC against K. pneumonia,"Klebsiella pneumonia; 96-well plate, 37° C., 10 h",25 µg/mL
same,MIC against E. cloacae,"Enterobacter cloacae; 96-well plate, 37° C., 10 h",12.5 µg/mL
same,MIC against A. hydrophila,"Aeromonas hydrophila; 96-well plate, 37° C., 10 h",25 µg/mL
same,MIC against C. diversus,"Citrobacter diversus; 96-well plate, 37° C., 10 h",12.5 µg/mL
same,MIC against M. catarrhalis,"Moraxella catarrhalis; 96-well plate, 37° C., 10 h",25 µg/mL
same,MIC against P. mirabilis,"Proteus mirabilis; 96-well plate, 37° C., 10 h",12.5 µg/mL
same,MIC against P. vulgaris,"Proteus vulgaris; 96-well plate, 37° C., 10 h",25 µg/mL
same,MIC against S. marcescens,"Serratia marcescens; 96-well plate, 37° C., 10 h",12.5 µg/mL
PRT528 (CSCNSNGQLGSCHPLTGDCINQEPKDSSPAEECDD; listed as Homo sapiens),MIC,E. coli DH5α,12.5 µg/mL
same,MIC against E. coli BL21,"E. coli BL21; 96-well plate, 37° C., 10 h",25 µg/mL
same,MIC against P. aeruginosa,"Pseudomonas aeruginosa; 96-well plate, 37° C., 10 h",50 µg/mL
same,MIC against K. pneumonia,"Klebsiella pneumonia; 96-well plate, 37° C., 10 h",25 µg/mL
same,MIC against E. cloacae,"Enterobacter cloacae; 96-well plate, 37° C., 10 h",12.5 µg/mL
same,MIC against A. hydrophila,"Aeromonas hydrophila; 96-well plate, 37° C., 10 h",25 µg/mL
same,MIC against C. diversus,"Citrobacter diversus; 96-well plate, 37° C., 10 h",50 µg/mL
same,MIC against M. catarrhalis,"Moraxella catarrhalis; 96-well plate, 37° C., 10 h",25 µg/mL
same,MIC against P. mirabilis,"Proteus mirabilis; 96-well plate, 37° C., 10 h",12.5 µg/mL
same,MIC against P. vulgaris,"Proteus vulgaris; 96-well plate, 37° C., 10 h",25 µg/mL
same,MIC against S. marcescens,"Serratia marcescens; 96-well plate, 37° C., 10 h",50 µg/mL
PRT1322 (PIDPCRAGNGGCHGLATCRAVGGGQRVCTCPPGFGGDGFS; listed as Homo sapiens),MIC,E. coli DH5α,12.5 µg/mL
same,MIC against E. coli BL21,E. coli BL21; [2],25 µg/mL
same,MIC against P. aeruginosa,Pseudomonas aeruginosa; [3],12.5 µg/mL
same,MIC against K. pneumonia,Klebsiella pneumonia; [4],25 µg/mL
same,MIC against E. cloacae,Enterobacter cloacae; [5],50 µg/mL
same,MIC against A. hydrophila,Aeromonas hydrophila; [6],12.5 µg/mL
same,MIC against C. diversus,Citrobacter diversus; [7],50 µg/mL
same,MIC against M. catarrhalis,Moraxella catarrhalis; [8],12.5 µg/mL
same,MIC against P. mirabilis,Proteus mirabilis; [9],12.5 µg/mL
same,MIC against P. vulgaris,Proteus vulgaris; [10],25 µg/mL
same,MIC against S. marcescens,Serratia marcescens; [11],12.5 µg/mL
PRT760 (KLDSCALGDHGCEHSCVSSEDSFVCQCFEGYILREDGKTCR; listed as Homo sapiens),MIC,E. coli DH5α,50 µg/mL
same,MIC (μg/mL) E. coli BL21,E. coli BL21; [12],25 µg/mL
same,MIC (μg/mL) P. aeruginosa,"Pseudomonas aeruginosa; P. aeruginosa, 10 h cultivation at 37° C.",12.5 µg/mL
same,MIC (μg/mL) K. pneumonia,"Klebsiella pneumonia; K. pneumonia, 10 h cultivation at 37° C.",50 µg/mL
same,MIC (μg/mL) E. cloacae,"Enterobacter cloacae; E. cloacae, 10 h cultivation at 37° C.",12.5 µg/mL
same,MIC (μg/mL) A. hydrophila,"Aeromonas hydrophila; A. hydrophila, 10 h cultivation at 37° C.",50 µg/mL
same,MIC (μg/mL) C. diversus,"Citrobacter diversus; C. diversus, 10 h cultivation at 37° C.",12.5 µg/mL
same,MIC (μg/mL) M. catarrhalis,"Moraxella catarrhalis; M. catarrhalis, 10 h cultivation at 37° C.",50 µg/mL
same,MIC (μg/mL) P. mirabilis,"Proteus mirabilis; P. mirabilis, 10 h cultivation at 37° C.",12.5 µg/mL
same,MIC (μg/mL) P. vulgaris,"Proteus vulgaris; P. vulgaris, 10 h cultivation at 37° C.",50 µg/mL
same,MIC (μg/mL) S. marcescens,"Serratia marcescens; S. marcescens, 10 h cultivation at 37° C.",12.5 µg/mL
PRT713 (GTNVCARDNGGCKQLCLYRGNSRRTCACAHGYLAEDGVTCL; listed as Homo sapiens),MIC,E. coli DH5α,50 µg/mL
same,MIC E. coli BL21,"E. coli BL21; 96-well plate, 37° C., 10 h",25 µg/mL
same,MIC P. aeruginosa,"Pseudomonas aeruginosa; 96-well plate, 37° C., 10 h",12.5 µg/mL
same,MIC K. pneumonia,"Klebsiella pneumonia; 96-well plate, 37° C., 10 h",12.5 µg/mL
same,MIC E. cloacae,"Enterobacter cloacae; 96-well plate, 37° C., 10 h",50 µg/mL
same,MIC A. hydrophila,"Aeromonas hydrophila; 96-well plate, 37° C., 10 h",12.5 µg/mL
same,MIC C. diversus,"Citrobacter diversus; 96-well plate, 37° C., 10 h",50 µg/mL
same,MIC M. catarrhalis,"Moraxella catarrhalis; 96-well plate, 37° C., 10 h",12.5 µg/mL
same,MIC P. mirabilis,"Proteus mirabilis; 96-well plate, 37° C., 10 h",50 µg/mL
same,MIC P. vulgaris,"Proteus vulgaris; 96-well plate, 37° C., 10 h",12.5 µg/mL
same,MIC S. marcescens,"Serratia marcescens; 96-well plate, 37° C., 10 h",50 µg/mL
PRT1362 (GKPTCPHACHTQGRCEEGQCVCDEGFAGVDCS; listed as Homo sapiens),MIC,E. coli DH5α,12.5 µg/mL
same,MIC against E. coli BL21,E. coli BL21; [12],25 µg/mL
same,MIC against P. aeruginosa,"Pseudomonas aeruginosa; Pseudomonas aeruginosa, 10 h cultivation at 37° C.",50 µg/mL
same,MIC against K. pneumonia,"Klebsiella pneumonia; Klebsiella pneumonia, 10 h cultivation at 37° C.",25 µg/mL
same,MIC against E. cloacae,"Enterobacter cloacae; Enterobacter cloacae, 10 h cultivation at 37° C.",12.5 µg/mL
same,MIC against A. hydrophila,"Aeromonas hydrophila; Aeromonas hydrophila, 10 h cultivation at 37° C.",50 µg/mL
same,MIC against C. diversus,"Citrobacter diversus; Citrobacter diversus, 10 h cultivation at 37° C.",12.5 µg/mL
same,MIC against M. catarrhalis,"Moraxella catarrhalis; Moraxella catarrhalis, 10 h cultivation at 37° C.",50 µg/mL
same,MIC against P. mirabilis,"Proteus mirabilis; Proteus mirabilis, 10 h cultivation at 37° C.",12.5 µg/mL
same,MIC against P. vulgaris,"Proteus vulgaris; Proteus vulgaris, 10 h cultivation at 37° C.",12.5 µg/mL
same,MIC against S. marcescens,"Serratia marcescens; Serratia marcescens, 10 h cultivation at 37° C.",12.5 µg/mL
PRT1319 (SMGDCGPTGLAQHCHLHARCVSQEGVARCRCLDGFEGDGFS; listed as Homo sapiens),MIC,E. coli DH5α,12.5 µg/mL
same,MIC against E. coli BL21,E. coli BL21; [2],50 µg/mL
same,MIC against P. aeruginosa,Pseudomonas aeruginosa; [3],12.5 µg/mL
same,MIC against K. pneumonia,Klebsiella pneumonia; [4],25 µg/mL
same,MIC against E. cloacae,Enterobacter cloacae; [5],25 µg/mL
same,MIC against A. hydrophila,Aeromonas hydrophila; [6],25 µg/mL
same,MIC against C. diversus,Citrobacter diversus; [7],12.5 µg/mL
same,MIC against M. catarrhalis,Moraxella catarrhalis; [8],25 µg/mL
same,MIC against P. mirabilis,Proteus mirabilis; [9],25 µg/mL
same,MIC against P. vulgaris,Proteus vulgaris; [10],12.5 µg/mL
same,MIC against S. marcescens,Serratia marcescens; [11],12.5 µg/mL
